# Data from paper PMC10382584, “Macrocyclization of linear molecules by deep learning to facilitate macrocyclic drug candidates discovery” (Nature Communications, 2023).
# Key:
# Assay in all cases: biochemical
# Parameters in all cases: DiscoveRx KINOMEscan competition binding, percent of DMSO control signal at 100 nM
# Conditions in all cases: read-out: Fig. 4a / Percent Control / Compound 1; percent of DMSO control, competition binding
# IRAK4 = IRAK4 (Homo sapiens, UniProt Q9NWZ3)
# FLT4 = FLT4 (Homo sapiens, UniProt P35916)
# VRK2 = VRK2 (Homo sapiens, UniProt Q86Y07)
# IKK-beta = target: T1, IKK-beta (Homo sapiens, UniProt O14920)
# T1 construct: gene IKBKB
# AMPK-alpha2 = target: T2, AMPK-alpha2 (Homo sapiens, UniProt P54646)
# T2 construct: gene PRKAA2
# SgK110 = target: T3, SgK110 (Homo sapiens, UniProt P0C264)
# T3 construct: gene SBK3
# AKT3 = AKT3 (Homo sapiens, UniProt Q9Y243)
# CAMK1B = target: T4, CAMK1B (Homo sapiens, UniProt Q6P2M8)
# T4 construct: gene PNCK
# KIT-autoinhibited = KIT-autoinhibited (Homo sapiens, UniProt P10721)
# PIP5K2B = target: T5, PIP5K2B (Homo sapiens, UniProt P78356)
# T5 construct: gene PIP4K2B
# KIT(A829P) = KIT(A829P) (Homo sapiens, UniProt P10721, A829P)
# [1] = target: T6, ABL1(H396P)-nonphosphorylated (Homo sapiens, UniProt P00519, H396P)
# T6 construct: nonphosphorylated
# SLK = SLK (Homo sapiens, UniProt Q9H2G2)
# CSK = CSK (Homo sapiens, UniProt P41240)
# MLK2 = target: T7, MLK2 (Homo sapiens, UniProt Q02779)
# T7 construct: gene MAP3K10
# GAK = GAK (Homo sapiens, UniProt O14976)
# TNIK = TNIK (Homo sapiens, UniProt Q9UKE5)
# CSNK1G3 = CSNK1G3 (Homo sapiens, UniProt Q9Y6M4)
# ERBB4 = ERBB4 (Homo sapiens, UniProt Q15303)
# TRKA = target: T8, TRKA (Homo sapiens, UniProt P04629)
# T8 construct: gene NTRK1
# NEK4 = NEK4 (Homo sapiens, UniProt P51957)
# MEK2 = target: T9, MEK2 (Homo sapiens, UniProt P36507)
# T9 construct: gene MAP2K2
# MST4 = target: T10, MST4 (Homo sapiens, UniProt Q9P289)
# T10 construct: gene STK26
# ERBB3 = ERBB3 (Homo sapiens, UniProt P21860)
# CDKL5 = CDKL5 (Homo sapiens, UniProt O76039)
# 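Further: KINOMEscan kinase panel binding assay, signal normalized between DMSO as 100% and a positive control compound as 0%.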
# SLK, sequence (Q9H2G2 whole entry): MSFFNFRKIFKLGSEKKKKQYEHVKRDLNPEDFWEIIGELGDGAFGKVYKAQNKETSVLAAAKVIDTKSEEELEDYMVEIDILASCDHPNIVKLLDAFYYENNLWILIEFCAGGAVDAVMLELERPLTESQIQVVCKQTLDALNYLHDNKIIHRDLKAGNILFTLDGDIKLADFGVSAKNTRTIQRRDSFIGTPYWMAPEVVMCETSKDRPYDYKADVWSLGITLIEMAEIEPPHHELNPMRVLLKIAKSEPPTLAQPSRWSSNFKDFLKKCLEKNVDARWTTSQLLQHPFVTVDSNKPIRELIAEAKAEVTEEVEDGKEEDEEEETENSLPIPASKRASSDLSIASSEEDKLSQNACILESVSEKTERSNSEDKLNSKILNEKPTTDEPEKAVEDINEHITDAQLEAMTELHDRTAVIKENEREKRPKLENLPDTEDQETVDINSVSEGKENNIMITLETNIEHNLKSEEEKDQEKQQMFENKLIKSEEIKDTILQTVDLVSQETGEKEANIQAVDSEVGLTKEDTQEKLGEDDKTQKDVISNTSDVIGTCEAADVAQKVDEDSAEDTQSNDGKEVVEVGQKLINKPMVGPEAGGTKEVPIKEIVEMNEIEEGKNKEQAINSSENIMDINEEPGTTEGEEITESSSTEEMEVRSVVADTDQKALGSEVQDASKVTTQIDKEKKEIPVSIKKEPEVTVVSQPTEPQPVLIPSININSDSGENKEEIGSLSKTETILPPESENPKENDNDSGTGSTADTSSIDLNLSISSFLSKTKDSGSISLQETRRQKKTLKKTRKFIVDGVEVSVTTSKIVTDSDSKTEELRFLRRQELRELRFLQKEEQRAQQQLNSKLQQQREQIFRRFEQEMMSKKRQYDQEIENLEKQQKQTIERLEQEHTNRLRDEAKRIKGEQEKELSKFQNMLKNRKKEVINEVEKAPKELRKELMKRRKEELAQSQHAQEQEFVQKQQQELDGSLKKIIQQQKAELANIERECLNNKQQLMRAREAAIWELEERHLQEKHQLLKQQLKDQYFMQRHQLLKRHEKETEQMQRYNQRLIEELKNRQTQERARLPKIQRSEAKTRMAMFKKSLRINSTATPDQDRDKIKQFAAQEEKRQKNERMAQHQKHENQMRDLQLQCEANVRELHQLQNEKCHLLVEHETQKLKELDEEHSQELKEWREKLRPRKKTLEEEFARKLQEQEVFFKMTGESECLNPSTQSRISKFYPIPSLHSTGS
# IRAK4, sequence (Q9NWZ3 whole entry): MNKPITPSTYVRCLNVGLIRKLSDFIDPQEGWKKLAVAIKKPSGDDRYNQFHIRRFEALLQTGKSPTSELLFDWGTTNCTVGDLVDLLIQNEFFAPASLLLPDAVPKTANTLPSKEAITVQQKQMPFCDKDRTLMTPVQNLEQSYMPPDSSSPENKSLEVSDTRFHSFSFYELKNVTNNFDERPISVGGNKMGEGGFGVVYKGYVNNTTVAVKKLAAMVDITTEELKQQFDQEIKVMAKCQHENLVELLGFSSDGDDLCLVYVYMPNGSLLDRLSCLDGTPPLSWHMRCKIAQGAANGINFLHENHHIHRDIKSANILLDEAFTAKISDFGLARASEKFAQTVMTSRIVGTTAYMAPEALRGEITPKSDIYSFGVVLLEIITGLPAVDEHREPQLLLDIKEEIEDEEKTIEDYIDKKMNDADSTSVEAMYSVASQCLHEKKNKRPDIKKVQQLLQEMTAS
# ERBB3, sequence (P21860 whole entry): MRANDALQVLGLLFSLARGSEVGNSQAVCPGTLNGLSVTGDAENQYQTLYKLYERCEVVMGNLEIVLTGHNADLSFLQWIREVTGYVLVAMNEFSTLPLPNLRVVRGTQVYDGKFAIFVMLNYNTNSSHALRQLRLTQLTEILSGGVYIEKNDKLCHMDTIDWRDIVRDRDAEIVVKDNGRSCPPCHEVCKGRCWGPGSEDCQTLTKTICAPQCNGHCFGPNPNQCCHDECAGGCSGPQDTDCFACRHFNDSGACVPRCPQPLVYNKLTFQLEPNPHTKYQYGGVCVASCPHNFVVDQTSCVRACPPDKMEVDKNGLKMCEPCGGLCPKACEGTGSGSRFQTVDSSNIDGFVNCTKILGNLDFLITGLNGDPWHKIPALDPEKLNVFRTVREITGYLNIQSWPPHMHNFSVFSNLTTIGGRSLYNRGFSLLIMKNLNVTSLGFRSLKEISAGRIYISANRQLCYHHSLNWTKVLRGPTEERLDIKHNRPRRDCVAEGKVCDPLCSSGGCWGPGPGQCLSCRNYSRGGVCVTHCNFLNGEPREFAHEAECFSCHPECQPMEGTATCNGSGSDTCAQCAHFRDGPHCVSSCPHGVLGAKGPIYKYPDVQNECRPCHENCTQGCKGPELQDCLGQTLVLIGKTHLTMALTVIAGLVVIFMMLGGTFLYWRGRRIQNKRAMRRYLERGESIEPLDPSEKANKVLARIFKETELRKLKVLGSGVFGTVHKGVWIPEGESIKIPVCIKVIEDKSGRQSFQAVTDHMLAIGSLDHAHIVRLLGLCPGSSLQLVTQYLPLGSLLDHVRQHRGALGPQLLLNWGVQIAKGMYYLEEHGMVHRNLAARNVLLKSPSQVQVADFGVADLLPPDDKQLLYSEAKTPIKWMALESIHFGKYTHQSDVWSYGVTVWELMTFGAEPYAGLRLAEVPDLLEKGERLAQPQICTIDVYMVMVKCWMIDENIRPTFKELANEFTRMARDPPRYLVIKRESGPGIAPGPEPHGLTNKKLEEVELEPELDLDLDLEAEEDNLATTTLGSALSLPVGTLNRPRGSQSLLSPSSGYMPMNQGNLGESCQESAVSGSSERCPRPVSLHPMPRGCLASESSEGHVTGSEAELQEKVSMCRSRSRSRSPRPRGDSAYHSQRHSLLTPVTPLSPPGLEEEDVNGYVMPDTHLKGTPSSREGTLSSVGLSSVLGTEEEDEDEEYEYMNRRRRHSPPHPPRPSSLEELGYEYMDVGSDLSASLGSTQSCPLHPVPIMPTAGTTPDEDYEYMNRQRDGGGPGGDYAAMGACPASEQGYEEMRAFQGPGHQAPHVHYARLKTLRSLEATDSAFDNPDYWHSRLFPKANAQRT
# GAK, sequence (O14976 whole entry): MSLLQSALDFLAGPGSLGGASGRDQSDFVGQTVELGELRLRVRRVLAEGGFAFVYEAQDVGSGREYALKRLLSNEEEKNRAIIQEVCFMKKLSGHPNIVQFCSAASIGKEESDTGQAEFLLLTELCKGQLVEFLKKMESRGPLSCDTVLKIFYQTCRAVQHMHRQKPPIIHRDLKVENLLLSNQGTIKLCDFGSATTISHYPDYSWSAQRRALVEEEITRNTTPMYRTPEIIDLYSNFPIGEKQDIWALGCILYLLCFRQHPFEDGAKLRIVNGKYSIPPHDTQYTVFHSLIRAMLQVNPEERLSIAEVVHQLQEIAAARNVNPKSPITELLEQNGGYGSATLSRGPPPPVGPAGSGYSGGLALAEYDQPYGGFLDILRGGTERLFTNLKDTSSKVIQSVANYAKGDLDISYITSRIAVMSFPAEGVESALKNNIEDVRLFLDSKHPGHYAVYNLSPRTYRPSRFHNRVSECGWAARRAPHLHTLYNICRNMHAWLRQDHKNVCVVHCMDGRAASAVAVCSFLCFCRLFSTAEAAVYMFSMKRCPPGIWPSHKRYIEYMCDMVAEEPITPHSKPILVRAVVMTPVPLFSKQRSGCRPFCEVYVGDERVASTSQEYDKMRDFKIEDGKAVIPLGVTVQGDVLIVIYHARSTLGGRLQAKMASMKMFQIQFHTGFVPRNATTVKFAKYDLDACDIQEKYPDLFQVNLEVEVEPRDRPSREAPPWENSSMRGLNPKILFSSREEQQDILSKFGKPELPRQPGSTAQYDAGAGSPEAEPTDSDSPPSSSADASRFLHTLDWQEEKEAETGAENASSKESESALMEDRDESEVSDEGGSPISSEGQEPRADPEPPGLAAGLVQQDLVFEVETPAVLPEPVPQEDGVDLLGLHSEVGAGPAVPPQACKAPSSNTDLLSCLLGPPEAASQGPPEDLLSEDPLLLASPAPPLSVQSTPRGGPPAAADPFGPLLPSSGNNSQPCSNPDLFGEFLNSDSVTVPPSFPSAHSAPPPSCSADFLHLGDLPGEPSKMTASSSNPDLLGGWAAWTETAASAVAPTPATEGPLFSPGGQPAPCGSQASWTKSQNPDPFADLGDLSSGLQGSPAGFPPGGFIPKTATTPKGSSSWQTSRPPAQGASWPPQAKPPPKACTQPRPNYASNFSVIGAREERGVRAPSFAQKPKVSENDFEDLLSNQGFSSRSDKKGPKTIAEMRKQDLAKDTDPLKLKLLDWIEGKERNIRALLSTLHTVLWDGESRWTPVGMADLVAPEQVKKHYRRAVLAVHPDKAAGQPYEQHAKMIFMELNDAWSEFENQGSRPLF
# T9 sequence (P36507 whole entry): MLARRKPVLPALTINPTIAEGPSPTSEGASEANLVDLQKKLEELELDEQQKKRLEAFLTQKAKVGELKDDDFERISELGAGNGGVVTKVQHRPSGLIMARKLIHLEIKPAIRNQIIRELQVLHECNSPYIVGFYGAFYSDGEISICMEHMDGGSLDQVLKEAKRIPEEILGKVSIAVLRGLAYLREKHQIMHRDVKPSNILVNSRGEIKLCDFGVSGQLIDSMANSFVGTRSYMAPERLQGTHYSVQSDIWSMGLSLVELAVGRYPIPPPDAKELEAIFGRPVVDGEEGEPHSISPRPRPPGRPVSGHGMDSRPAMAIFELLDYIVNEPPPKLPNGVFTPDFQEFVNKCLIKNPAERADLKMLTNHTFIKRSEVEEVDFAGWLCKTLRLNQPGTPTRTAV
# T4 sequence (Q6P2M8 whole entry): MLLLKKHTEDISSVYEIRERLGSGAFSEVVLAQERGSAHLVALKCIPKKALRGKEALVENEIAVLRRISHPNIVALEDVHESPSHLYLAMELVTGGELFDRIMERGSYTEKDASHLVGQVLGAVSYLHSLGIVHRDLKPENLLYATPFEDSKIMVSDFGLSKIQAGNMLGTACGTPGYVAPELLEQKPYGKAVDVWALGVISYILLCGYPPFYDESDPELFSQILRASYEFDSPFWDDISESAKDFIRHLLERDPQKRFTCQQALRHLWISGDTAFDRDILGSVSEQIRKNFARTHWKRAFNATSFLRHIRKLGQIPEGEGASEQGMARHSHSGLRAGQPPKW
smiles,measurement,setting,value
Cc1cnc2nc1Nc1cccc(c1)COCc1cc(ccc1OCCN1CCCC1)N2 [Compound 1],remaining binding at 0.1 µM,IRAK4,72%
same,remaining binding at 0.1 µM,FLT4,85%
same,remaining binding at 0.1 µM,VRK2,97%
same,remaining binding at 0.1 µM,IKK-beta,97%
same,remaining binding at 0.1 µM,AMPK-alpha2,97%
same,remaining binding at 0.1 µM,SgK110,65%
same,remaining binding at 0.1 µM,AKT3,100%
same,remaining binding at 0.1 µM,CAMK1B,92%
same,remaining binding at 0.1 µM,KIT-autoinhibited,86%
same,remaining binding at 0.1 µM,PIP5K2B,96%
same,remaining binding at 0.1 µM,KIT(A829P),45%
same,remaining binding at 0.1 µM,[1],37%
same,remaining binding at 0.1 µM,SLK,70%
same,remaining binding at 0.1 µM,CSK,100%
same,remaining binding at 0.1 µM,MLK2,98%
same,remaining binding at 0.1 µM,GAK,36%
same,remaining binding at 0.1 µM,TNIK,80%
same,remaining binding at 0.1 µM,CSNK1G3,100%
same,remaining binding at 0.1 µM,ERBB4,82%
same,remaining binding at 0.1 µM,TRKA,26%
same,remaining binding at 0.1 µM,NEK4,79%
same,remaining binding at 0.1 µM,MEK2,72%
same,remaining binding at 0.1 µM,MST4,100%
same,remaining binding at 0.1 µM,ERBB3,100%
same,remaining binding at 0.1 µM,CDKL5,100%
